Tests used:
[1] = biological target: STAT3 (Homo sapiens, UniProt P40763); test: Western blot of basal p-STAT3 (Tyr705) in sarcoma cell lines RH30, EW8, RD; type: cell-based; set-up: endogenous in cells; details: ES, OS and RMS cells, RH30, EW8, RD treated 30 minutes
Method: (§1) Cell lysis, protein isolation and immunoblotting were performed as described previously. Twenty micrograms of protein were resolved using 4–12% Bis-Tris polyacrylamide gels. Gels were transferred to PVDF membranes and subjected to blocking and incubation with primary and secondary antibodies. The primary antibodies used in this study included: phospho-STAT3 (Tyr705, Cell Signaling, Boston, MA and Abcam, Cambridge, MA), total STAT3 (Cell Signaling and Abcam), phospho-STAT1 (Cell Signaling), total STAT1 (Cell Signaling), phospho-STAT2 (Cell Signaling), phospho-STAT4 (Cell Signaling), phospho-STAT6 (Cell Signaling), and GAPDH (Cell Signaling). Protein bands were detected using Western Lightning ® Plus Enhanced Chemiluminescence substrate (Perkin Elmer, Waltham, MA) and HyBlot CL ® Autoradiography film (Denville Scientific, Holliston, MA). The cytokines used in this study included: interferon gamma (IFN-γ, Cell Signaling), interferon alpha (IFN-α, Cell Signaling), interleukin-4 (IL-4, Cell Signaling), interleukin-6 (IL-6, Cell Signaling), and oncostatin M (OSM, Cell Signaling).
(§2) Fig 1 LY5 inhibits pSTAT3 in sarcoma cell lines. (A) The tumor cell lines RH30, EW8, and RD were treated with increasing concentrations of LY5 for 30 minutes. Cell lysates were collected for Western blotting of p-STAT3, total STAT3, and GAPDH. GAPDH was used as loading control. […]

[2] = system: MG63.3 cells; test: Ex vivo pulmonary metastasis assay (PuMA); type: cell-based, human; details: MG 63.3, 10 μM and 50 μM LY5, up to 21 days
Method: GFP-positive K7M2 and MG63.3 cells (3 x 10^5 MG63.3; 5 x 10^5 K7M2) were administered via tail vein injection into mice. Following humane euthanasia, the lungs were insufflated with a culture medium/agarose mixture to a constant hydrostatic pressure of 20 cm H2O and prepared for ex vivo culture as previously described. Lung sections were cultured in complete media containing LY5 (0, 0.1, 1, 10 or 50 μM) on sterile Gelfoam using 6 lung sections per treatment condition. Media was changed every 48 hrs and lung slices were imaged with a fluorescent microscope every 7 days for a total of 21 days.
MG63.3 and K7M2 cell lines were exposed to increasing concentrations of LY5 to determine the IC50 (A). Western blot analysis was performed to determine the dose and duration of LY5 exposure required to inhibit STAT3 phosphorylation (B-C). Serial imaging of fluorescently labeled MG63.3 and K7M2 cells was performed in ex vivo LY5 treated lung sections (D). Metastatic burden was quantified by evaluation of the percent tumor burden (mean normalized fluorescent area). Data are reported as the mean ± standard deviation. In MG 63.3 experiment, p < 0.0001 Kruskal-Wallis test, p < 0.05 10 μM vs control at days 7, 14, and 21, 10 μM vs 1 μM at days 7, 14, and 21, 50 μM vs control at days 7, 14, and 21, and 50 μM vs 10 μM at days 7, 14, and 21 post-test Dunn. […]

[3] = Liver microsomal stability; type: in vitro ADME, canine; details: compared to mice; data not shown
Excerpt: The liquid chromatography-mass spectrometry system utilized for these analyses consisted of a Dionex Ultimate 3000 RSLCnano High Performance Liquid Chromatography system and a Thermo Finnigan Quantum Ultras EMR mass spectrometer with an electrospray ionization source. Positive ionization mode was used for both LY5 and the internal standard, hesperetin. Plasma samples were collected and analyzed by the OSU James Comprehensive Cancer Center Pharmacoanalytical Shared Resource. Pharsight Phoenix WinNonlin software using non-compartmental analysis was used to generate PK parameters including maximum plasma concentration (Cmax), amount of time that drug is present at Cmax (Tmax), and total area under the curve (AUC). AUC all and AUC last were calculated by linear trapezoidal method of concentration-time curve up to the last measured point. AUC inf-obs was calculated by log-linear extrapolation of the terminal phase beyond the last collection time. Bioavailability (F) was calculated for IP and PO administration routes. Plasma stability and liver microsomal stability of LY5 were also assessed through this shared resource.

[4] = biological target: T1, STAT2 (Homo sapiens, UniProt P52630); test: Cytokine-induced STAT2 phosphorylation in SJSA cells, Western blot; type: cell-based; details: induced by IFN-γ, IFN-α, or IL-4
T1 construct: endogenous in cells; host or cells: SJSA
Method: as §1, §2

[5] = biological target: T2, STAT1 (Homo sapiens, UniProt P42224); test: Cytokine-induced STAT1 phosphorylation in SJSA cells, Western blot; type: cell-based; details: induced by IFN-γ, IFN-α, or IL-4
T2 construct: endogenous in cells; host or cells: SJSA
Method: as §1, §2

[6] = system: human rhabdomyosarcoma cell lines RD, JR-1, and RH30; test: Alamar Blue cell viability assay, rhabdomyosarcoma panel; type: cell-based; details: range over RD, JR-1, RH30
Method: Sarcoma cell lines were seeded in 24-well plates in 1X RPMI medium containing 10% fetal bovine serum. Cells were then incubated with DMSO (control) or concentrations of LY5 ranging from 10 nM to 10 μM for 96 hrs. At the end of the incubation period, Alamar Blue (Invitrogen, Carlsbad, CA) was added to cells at one-tenth the volume of the cell culture medium and incubated for 3 hrs at 37° C in the dark. Fluorescence was then measured at an excitation/emissions wavelength of 570/590 nm and emission wavelength of 590 nm.
Fig 2 Biologic activity of LY5 in sarcoma cell lines. Dose response curves for LY5: RMS cell lines (RH30, RD, JR-1), ES cell lines (ES-3, ES-6, ES-7, ES-8), and an OS cell line (OS-17) were treated with LY5 (concentrations ranging from 10 nM to 10 μM) for 96 hours. Cell viability was determined using Alamar Blue staining. IC50 values are indicated for each cell line. Analyses were performed in triplicate and data are plotted as means ± standard deviation.

Chain of STAT3 (P40763 whole entry): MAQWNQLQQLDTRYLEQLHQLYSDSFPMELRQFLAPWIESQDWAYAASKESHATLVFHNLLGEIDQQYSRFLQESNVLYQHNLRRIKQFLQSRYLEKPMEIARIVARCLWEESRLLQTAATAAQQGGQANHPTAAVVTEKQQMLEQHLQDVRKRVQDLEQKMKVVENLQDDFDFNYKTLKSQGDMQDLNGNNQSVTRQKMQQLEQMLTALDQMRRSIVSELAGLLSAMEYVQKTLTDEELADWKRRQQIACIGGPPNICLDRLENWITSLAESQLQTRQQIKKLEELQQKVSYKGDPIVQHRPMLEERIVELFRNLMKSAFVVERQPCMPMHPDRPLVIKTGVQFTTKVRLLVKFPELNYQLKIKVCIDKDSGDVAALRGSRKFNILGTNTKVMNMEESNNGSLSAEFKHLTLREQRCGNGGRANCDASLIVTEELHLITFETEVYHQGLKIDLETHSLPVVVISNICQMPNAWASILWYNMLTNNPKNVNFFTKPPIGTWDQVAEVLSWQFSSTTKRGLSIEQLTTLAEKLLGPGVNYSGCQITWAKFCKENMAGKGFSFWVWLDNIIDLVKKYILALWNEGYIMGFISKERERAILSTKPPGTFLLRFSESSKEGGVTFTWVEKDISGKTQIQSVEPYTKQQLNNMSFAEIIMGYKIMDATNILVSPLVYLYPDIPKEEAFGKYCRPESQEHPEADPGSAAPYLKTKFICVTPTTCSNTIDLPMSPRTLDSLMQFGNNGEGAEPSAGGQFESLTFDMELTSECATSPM
T2 sequence (P42224 whole entry): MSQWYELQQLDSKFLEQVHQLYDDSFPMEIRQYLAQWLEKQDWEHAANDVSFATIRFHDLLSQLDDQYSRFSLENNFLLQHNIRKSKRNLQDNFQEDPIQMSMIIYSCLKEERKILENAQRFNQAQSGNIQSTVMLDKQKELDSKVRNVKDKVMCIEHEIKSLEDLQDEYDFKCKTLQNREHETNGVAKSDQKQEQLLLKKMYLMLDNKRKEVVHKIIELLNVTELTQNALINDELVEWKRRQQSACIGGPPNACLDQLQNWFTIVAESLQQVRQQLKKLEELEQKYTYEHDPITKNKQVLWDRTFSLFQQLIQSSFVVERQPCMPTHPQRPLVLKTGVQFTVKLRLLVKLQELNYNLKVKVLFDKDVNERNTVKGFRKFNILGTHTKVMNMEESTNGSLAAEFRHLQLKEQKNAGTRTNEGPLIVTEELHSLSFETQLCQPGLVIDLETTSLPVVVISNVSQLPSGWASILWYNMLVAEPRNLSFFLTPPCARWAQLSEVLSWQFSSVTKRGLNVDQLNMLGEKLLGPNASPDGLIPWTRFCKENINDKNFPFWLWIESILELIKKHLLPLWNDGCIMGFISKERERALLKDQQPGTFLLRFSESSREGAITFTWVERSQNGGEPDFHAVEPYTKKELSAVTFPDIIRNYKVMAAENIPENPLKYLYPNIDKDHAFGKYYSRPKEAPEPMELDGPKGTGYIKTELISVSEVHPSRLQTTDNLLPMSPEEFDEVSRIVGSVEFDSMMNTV
T1 sequence (P52630 whole entry): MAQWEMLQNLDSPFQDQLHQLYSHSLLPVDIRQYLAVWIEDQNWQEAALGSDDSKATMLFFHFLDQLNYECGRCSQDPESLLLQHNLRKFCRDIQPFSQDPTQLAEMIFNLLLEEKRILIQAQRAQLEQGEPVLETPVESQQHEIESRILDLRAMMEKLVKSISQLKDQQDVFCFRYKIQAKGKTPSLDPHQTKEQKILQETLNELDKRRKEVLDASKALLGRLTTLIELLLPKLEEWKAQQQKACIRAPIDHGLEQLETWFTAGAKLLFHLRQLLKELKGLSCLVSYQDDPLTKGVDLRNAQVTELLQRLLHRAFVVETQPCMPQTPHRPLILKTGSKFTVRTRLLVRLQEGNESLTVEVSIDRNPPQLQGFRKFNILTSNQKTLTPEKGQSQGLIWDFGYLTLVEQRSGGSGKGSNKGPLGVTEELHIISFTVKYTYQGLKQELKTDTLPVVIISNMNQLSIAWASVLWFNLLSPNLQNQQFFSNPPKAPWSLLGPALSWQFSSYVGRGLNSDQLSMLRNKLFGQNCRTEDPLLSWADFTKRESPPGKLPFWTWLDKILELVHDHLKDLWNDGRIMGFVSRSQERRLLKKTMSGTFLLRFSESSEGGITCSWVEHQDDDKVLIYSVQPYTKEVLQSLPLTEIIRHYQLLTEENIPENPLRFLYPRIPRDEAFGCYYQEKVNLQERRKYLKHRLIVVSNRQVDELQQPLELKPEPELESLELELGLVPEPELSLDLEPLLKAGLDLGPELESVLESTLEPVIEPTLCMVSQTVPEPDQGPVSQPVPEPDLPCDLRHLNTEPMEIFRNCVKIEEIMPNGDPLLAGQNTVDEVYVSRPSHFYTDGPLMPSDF

NS(=O)(=O)c1cccc2c1C(=O)C=C(Nc1cccnc1)C2=O [LY5, 5,8-dioxo-6-(pyridin-3-ylamino)-5,8-dihydronaphthalene-1-sulfonamide]
basal STAT3 phosphorylation at Tyr705 [1]: inhibited basal STAT3 phosphorylation
percent tumor burden in PuMA [2]: significantly decreased
stability when incubated with canine liver microsomes [3]: increased stability
phosphorylation of STAT2 [4]: did not inhibit
phosphorylation of STAT1 [5]: did not inhibit
IC50 [6]: 0.2 to 0.4 µM
